Reference: patent US20220088100A1, “COSMETIC, PHARMACEUTICAL AND NUTRACEUTICAL USE OF AN EXTRACT DERIVED FROM CANNABISSATIVA CELL CULTURES” (ARTERRA BIOSCIENCE S.P.A., priority 2018, published 2022)
Structures can show the parent of a compound that is named as a salt.

System: histamine production in RAW 264.7 cells (macrophages)
Assay: Histamine content in macrophages stressed with CGRP
Format: cell-based
Conditions: RAW 264.7, 50 μg/ml 2 h, then 10 nM CGRP 16 h; reduction compared with that of the extract
Method: To determine whether the plant cell culture extract according to the invention was able to reduce the production of histamine induced by the CGRP peptide in the immune system cells, an assay was conducted for the quantization of the histamine content in macrophages subjected to a stress condition by the CGRP neuropeptide.
RAW 264.7 cells were seeded in 96-well plates in an initial number of 5×10^4, and after 16 h, they were treated with different doses of the extract or with the anti-histamine compound cetirizine dihydrochloride (50 μg/ml), used as a positive control of the experiment. After 2 h of treatment with the extract or with cetirizine, the production of histamine was induced by the treatment with 10 nM of CGRP and, after 16 h, the amount of histamine was measured by adding 100 μl of methanol containing 0.4 M NaOH and 1 mg/ml of o-Phthaldialdehyde (OPT). After 10 minutes of incubation at room temperature, 50 μl of 0.1M HCl was added to each well to stop the reaction. Fluorescence was measured at 443 nm using a 360 nm excitation wavelength from the multi-plate reader, Victor3 (Perkin Elmer). The histamine content was calculated as a percentage of the value of the control cells stressed with 10 nM CGRP, arbitrarily set as 100%.

In the case of `O=C(O)COCCN1CCN(C(c2ccccc2)c2ccc(Cl)cc2)CC1` (stereo not shown) [cetirizine, cetirizine dihydrochloride], the “production of histamine in macrophages, positive control” value is reported as “similarly”.
